mRNA knockout data for 10 substances are collected here from patent US6846921B2, “Chimeric antisense oligonucleotides and cell transfecting formulations thereof” (Chiron Corporation, priority 1999, dated 2005).

{5'-OMe-dT} = O-methyl thymidine blocking nucleotide (W), phosphodiester-linked; {3'-3'N} = to-3' linked nucleotide blocking group (Z), phosphodiester-linked; d = 2'-deoxy (DNA); m = 2'-O-methyl Bounds are passed on as bounds.

For one data set, the system named is MMP2 mRNA. The data set can be described thus: MMP2 mRNA knockout after transfection of chimeric antisense oligonucleotide. Particulars: HT1080 cells, Lipitoid 1 for transfection, incubated 24 hours, approximate level. Type of data set: cell-based, human. The protocol: (§1) With the exception of the mTyr oligo (SEQ ID NO: 17-18), which was transfected into B16 melanoma cells, all oligos shown in Table 1 were transfected into HT1080 cells, using “Lipitoid 1” (see below) for transfection, and incubated for 24 hours. The table gives the approximate level of mRNA knockout observed in each case.
(§2) For each transfection mixture, a carrier molecule, preferably a lipitoid or cholesteroid, was prepared to a working concentration of 0.5 mM in water, sonicated to yield a uniform solution, and filtered through a 0.45 μm PVDF membrane. The antisense oligonucleotide was prepared to a working concentration of 100 μM in sterile Millipore water. […]
(§3) The level of target mRNA was quantitated using the Roche LightCycler™ real-time PCR machine. […]
(§4) An amplification mixture was prepared by mixing in the following order: 1×PCR buffer II, 3 mM MgCl2, 140 μM each dNTP, 0.175 pmol each oligo, 1:50,000 dil of SYBR® Green, 0.25 mg/ml BSA, 1 unit Taq polymerase, and H2O to 20 μl. (PCR buffer II is available in 10×concentration from Perkin-Elmer (Norwalk, Conn.). In 1×concentration it contains 10 mM Tris pH 8.3 and 50 mM KCl. SYBR® Green (Molecular Probes, Eugene, Oreg.) is a dye which fluoresces when bound to double stranded DNA. As double stranded PCR product is produced during amplification, the fluorescence from SYBR® Green increases.) […]

Another data set deals with PDK1 mRNA. In words: PDK1 mRNA knockout after transfection of chimeric antisense oligonucleotide. Type of data set: cell-based, human. The note with it: HT1080 cells, Lipitoid 1 for transfection, incubated 24 hours, approximate level. How it is done:
as §1, §2, §3, §4

Another data set has as its system mTyr mRNA. The data set can be described thus: mTyr mRNA knockout after transfection into B16 melanoma cells. The note with it: approximate level. Type of data set: cell-based. The protocol: as §1, §2, §3, §4
A further data set relates to AKT2 mRNA. The data set can be described thus: AKT2 mRNA knockout after transfection of chimeric antisense oligonucleotide. The class given is cell-based, human. Particulars: HT1080 cells, Lipitoid 1 for transfection, incubated 24 hours, approximate level. The protocol: as §1, §2, §3, §4
In a further data set the test system is UPAR mRNA. The data set can be described thus: UPAR mRNA knockout after transfection of chimeric antisense oligonucleotide. The note with it: HT1080 cells, Lipitoid 1 for transfection, incubated 24 hours, approximate level. The class given is cell-based, human. How it is done:
as §1, §2, §3, §4

The next data set relates to p110α mRNA. In words: p110α mRNA knockout after transfection of chimeric antisense oligonucleotide. The class given is cell-based, human. The note with it: HT1080 cells, Lipitoid 1 for transfection, incubated 24 hours, approximate level. The protocol:
as §1, §2, §3, §4

In another data set the test system is CHK2 mRNA. In words: CHK2 mRNA knockout after transfection of chimeric antisense oligonucleotide. The class given is cell-based, human. Particulars: HT1080 cells, Lipitoid 1 for transfection, incubated 24 hours, approximate level. How it is done: as §1, §2, §3, §4
The next data set has as its system p110β mRNA. The data set can be described thus: p110β mRNA knockout after transfection of chimeric antisense oligonucleotide. Particulars: HT1080 cells, Lipitoid 1 for transfection, incubated 24 hours, approximate level. Type of data set: cell-based, human. How it is done: as §1, §2, §3, §4
For the next data set, the system named is MMP9 mRNA. The data set can be described thus: MMP9 mRNA knockout after transfection of chimeric antisense oligonucleotide. The class given is cell-based, human. The note with it: HT1080 cells, Lipitoid 1 for transfection, incubated 24 hours, approximate level. How it is done:
as §1, §2, §3, §4

The subject of another data set is KRAS mRNA. In words: KRAS mRNA knockout after transfection of chimeric antisense oligonucleotide. Particulars: HT1080 cells, Lipitoid 1 for transfection, incubated 24 hours, approximate level. The class given is cell-based, human. The protocol: as §1, §2, §3, §4

On to “14 (GAAGCCCCACTTGCGGTCGTCAT; sugars from the 5' end m7 d9 m7, 5' {5'-OMe-dT}, 3' {3'-3'N}, backbone and T or U not given here; 2'-OMe blocks are phosphodiester, DNA gap is phosphorothioate) [compound 14]”, for which, in the data set on MMP2 mRNA, the mRNA knockout is listed as above 80%. Substance “23 (CTGTGAGCAACAGCTGTCGTCGTCT; antisense; sugars from the 5' end m7 d11 m7, 5' {5'-OMe-dT}, 3' {3'-3'N}, backbone and T or U not given here; 2'-OMe blocks are phosphodiester, DNA gap is phosphorothioate) [compound 23]” yielded a mRNA knockout in the data set on PDK1 mRNA above 90%. Turning to “17 (AACCCATGAAGTTGCCTGAGCACTG; antisense; sugars from the 5' end m7 d11 m7, 5' {5'-OMe-dT}, 3' {3'-3'N}, backbone and T or U not given here; 2'-OMe blocks are phosphodiester, DNA gap is phosphorothioate) [compound 17]”, the mRNA knockout in the data set on mTyr mRNA is given as above 90%. In turn, “2 (GTTCCCTTGCCAAGGAGTTTGAGAT; antisense; sugars from the 5' end m7 d11 m7, 5' {5'-OMe-dT}, 3' {3'-3'N}, backbone and T or U not given here; 2'-OMe blocks are phosphodiester, DNA gap is phosphorothioate) [compound 2]” returned a mRNA knockout with AKT2 mRNA above 85%. “24 (GGCAGTCATTAGCAGGGTGATGGTG; antisense; sugars from the 5' end m7 d11 m7, 5' {5'-OMe-dT}, 3' {3'-3'N}, backbone and T or U not given here; 2'-OMe blocks are phosphodiester, DNA gap is phosphorothioate) [compound 24]”: the mRNA knockout with UPAR mRNA was above 80%. In the case of “19 (ATCTGGTCGCCTCATTTGCTCAACT; antisense; sugars from the 5' end m7 d11 m7, 5' {5'-OMe-dT}, 3' {3'-3'N}, backbone and T or U not given here; 2'-OMe blocks are phosphodiester, DNA gap is phosphorothioate) [compound 19]”, the mRNA knockout with p110α mRNA is above 95%. In the data set with CHK2 mRNA, “4 (GACCCACTTCCCTGAAAATCCGAAA; antisense; sugars from the 5' end m7 d11 m7, 5' {5'-OMe-dT}, 3' {3'-3'N}, backbone and T or U not given here; 2'-OMe blocks are phosphodiester, DNA gap is phosphorothioate) [compound 4]” registered a mRNA knockout above 90%. For the substance “21 (TGATGAAGAGATTCCCATGCCGTCG; antisense; sugars from the 5' end m7 d11 m7, 5' {5'-OMe-dT}, 3' {3'-3'N}, backbone and T or U not given here; 2'-OMe blocks are phosphodiester, DNA gap is phosphorothioate) [compound 21]”, in the data set with p110β mRNA, the mRNA knockout is given as above 90%. Substance “16 (GCTTTCTCTCGGTACTGGAAGACGT; antisense; sugars from the 5' end m7 d11 m7, 5' {5'-OMe-dT}, 3' {3'-3'N}, backbone and T or U not given here; 2'-OMe blocks are phosphodiester, DNA gap is phosphorothioate) [compound 16]” yielded a mRNA knockout with MMP9 mRNA above 80%. Substance “12 (GCATGTGGAAGGTAGGGAGGCAAGA; antisense; sugars from the 5' end m7 d11 m7, 5' {5'-OMe-dT}, 3' {3'-3'N}, backbone and T or U not given here; 2'-OMe blocks are phosphodiester, DNA gap is phosphorothioate) [compound 12]” displayed a mRNA knockout in the data set on KRAS mRNA above 85%.
